Experimental data published in patent US20210392890A1, “COMPOSITIONS COMPRISING PYRIDINE CARBOXYLATE HERBICIDES AND PLANT GROWTH REGULATORS” (Corteva Agriscience LLC, priority 2018, published 2021).

Key:
Format in all cases: in vivo
[1] = system: Capsella bursa-pastoris (shepherd's purse); assay: Greenhouse postemergence herbicidal effect on CAPBP
Source text: (§1) Seeds of the desired test plant species were planted in a 90:10% v/v (volume/volume) mixture of PRO-MIX® BX (Premier Tech Horticulture, Quakertown, Pa., USA) and PROFILE® GREENS GRADE™ (Profile Products LLC, Buffalo Grove, Ill., USA) planting mixture, which typically has a pH of 5.2 to 6.2 and an organic matter content of at least 50 percent, in plastic pots with a surface area of 103.2 square centimeters (cm^2). In some aspects, to help ensure good germination and healthy plants, a fungicide treatment and/or other chemical or physical treatment was applied. The plants were grown for 7-36 days (d) in a greenhouse with an approximate 14-hour (h) photoperiod which was maintained at about 23° C. during the day and 22° C. during the night. Nutrients and water were added on a regular basis and supplemental lighting was provided with overhead metal halide 1000-Watt lamps as necessary. The plants were employed for testing when they reached the second or third true leaf stage.
(§2) Emulsifiable concentrates of each of each pyridine carboxylate herbicide (Compound A or Compound B) were prepared at 100 grams acid equivalent per liter (g ae/L). The emulsifiable concentrates also included a safener, cloquintocet-mexyl, at 120 grams active ingredient per liter (g ai/L). […]
(§3) The treated plants and control plants were placed in a greenhouse as described above and watered by sub-irrigation to prevent wash-off of the test compounds. After 20-22 d, the condition of the test plants as compared with that of the control plants was determined visually and scored on a scale of 0 to 100 percent where 0 corresponds to no injury and 100 corresponds to complete kill.

[2] = system: Veronica persica (Persian speedwell); assay: Greenhouse postemergence herbicidal effect on VERPE
Source text: as §1, §2, §3

[3] = system: Sinapis arvensis (wild mustard); assay: Greenhouse postemergence herbicidal effect on SINAR
Source text: as §1, §2, §3

[4] = system: Cyperus esculentus (yellow nutsedge); assay: Greenhouse postemergence herbicidal effect on CYPES; settings: Ethephon 0 g/ha
Source text: as §1, §2
as §3, with “kill. […]” for “kill.”

## N#CCOC(=O)c1nc(-c2ccc3cc[nH]c3c2F)c(F)c(N)c1Cl [Compound A, cyanomethyl 4-amino-3-chloro-5-fluoro-6-(7-fluoro-1H-indol-6-yl)pyridine-2-carboxylate]
[1]; herbicide 7.5 g ae/ha alone
  % visual injury Obs: 45%
[1]; herbicide 10 g ae/ha alone
  % visual injury Obs: 55%
[1]; herbicide 15 g ae/ha alone
  % visual injury Obs: 55%
[2]; herbicide 7.5 g ae/ha alone
  % visual injury Obs: 78%
[2]; herbicide 10 g ae/ha alone
  % visual injury Obs: 90%
[2]; herbicide 15 g ae/ha alone
  % visual injury Obs: 93%
[3]; herbicide 7.5 g ae/ha alone
  % visual injury Obs: 88%
[3]; herbicide 10 g ae/ha alone
  % visual injury Obs: 91%
[3]; herbicide 15 g ae/ha alone
  % visual injury Obs: 91%
[4]; Compound A 7.5 g/ha
  Herbicidal Effects (% visual injury) CYPES Obs: 58%
[4]; Compound A 10 g/ha
  Herbicidal Effects (% visual injury) CYPES Obs: 38%
